We go through 39 molecules from patent US11739100B2, “2,3-dihydro-1h-imidazo{1,2-a}pyrimidin-5-one and this 1,2,3,4-tetrahydropyrimido{1,2-a}pyrimidin-6-one derivatives comprising a substituted morpholine, preparation thereof and pharmaceutical use thereof” (SANOFI, priority 2012, dated 2023).

Where only a bound is given, the exact number is not on record here.

Usually IC50 stands for the concentration needed to halve the response being measured.

The target in this test is T1, recombinant Vps34 (Homo sapiens, UniProt Q8NEB9).
T1 construct: purchased Invitrogen PV5126
T1 sequence (Q8NEB9 whole entry): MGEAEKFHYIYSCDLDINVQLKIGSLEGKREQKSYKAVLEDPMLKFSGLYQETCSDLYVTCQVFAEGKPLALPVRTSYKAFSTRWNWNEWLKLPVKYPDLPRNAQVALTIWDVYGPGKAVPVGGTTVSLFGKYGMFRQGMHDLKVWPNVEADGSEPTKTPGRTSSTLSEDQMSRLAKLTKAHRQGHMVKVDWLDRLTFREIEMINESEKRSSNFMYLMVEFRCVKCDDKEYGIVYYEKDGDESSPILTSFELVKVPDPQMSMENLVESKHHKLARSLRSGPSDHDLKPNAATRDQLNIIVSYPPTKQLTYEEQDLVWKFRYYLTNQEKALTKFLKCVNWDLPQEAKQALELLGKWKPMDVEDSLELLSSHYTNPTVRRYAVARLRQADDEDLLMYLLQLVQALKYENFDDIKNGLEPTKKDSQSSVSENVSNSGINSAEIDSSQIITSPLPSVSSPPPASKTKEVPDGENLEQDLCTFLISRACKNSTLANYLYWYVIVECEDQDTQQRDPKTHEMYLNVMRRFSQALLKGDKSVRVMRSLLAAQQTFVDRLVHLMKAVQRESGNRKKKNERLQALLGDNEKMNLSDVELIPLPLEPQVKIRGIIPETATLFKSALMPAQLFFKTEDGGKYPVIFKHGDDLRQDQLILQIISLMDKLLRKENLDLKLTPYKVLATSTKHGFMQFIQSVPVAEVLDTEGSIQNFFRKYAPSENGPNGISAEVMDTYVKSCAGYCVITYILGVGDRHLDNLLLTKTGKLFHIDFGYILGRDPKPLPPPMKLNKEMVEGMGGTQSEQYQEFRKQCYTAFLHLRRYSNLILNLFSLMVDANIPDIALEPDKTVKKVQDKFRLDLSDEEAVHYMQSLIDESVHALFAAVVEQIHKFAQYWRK
Nature of the test: Phosphorylation of phosphatidylinositol (PI) by Vps34 in vitro, ADP detected by TR-FRET (HTRF Transcreener ADP). The settings on record: 10 μM ATP, 55 μg/ml PI, approximately 3 nM Vps34, 1 hour at ambient temperature; absolute IC50, mean of two independent experiments; read-out: IC50 activity range. Format: biochemical. On the technique in general: Time-resolved FRET reads energy transfer from a long-lived donor to a nearby acceptor.

In the case of `C[C@@H]1COCCN1c1cc(=O)n2c(n1)N(CC1CCCO1)[C@H](C(F)(F)F)CC2` (single isomer, unassigned) [Example 136], the IC50 is under 0.01 µM.

Regarding `C[C@@H]1COCCN1c1cc(=O)n2c(n1)N(CC1CCCCO1)[C@H](C(F)(F)F)CC2` (single isomer, unassigned) [Example 138], the IC50 was under 0.01 µM.

Turning to `CCC1CN(c2cc(=O)n3c(n2)N(CC(=O)c2ccccn2)[C@H](C(F)(F)F)CC3)CCO1` (single isomer, unassigned) [Example 172], the half-inhibitory concentration (IC50) was over 0.1 µM.

On to `CC1CN(c2cc(=O)n3c(n2)N(CC(=O)c2ccccn2)[C@H](C(F)(F)F)CC3)CCO1` (single isomer, unassigned) [Example 174], for which the IC50 lay in the range of 0.01 to 0.1 µM.

Turning to `CC1CN(c2cc(=O)n3c(n2)N(CC(=O)c2ccccn2)[C@H](C(F)(F)F)CC3)CCO1` (single isomer, unassigned) [Example 175], the IC50 is over 0.1 µM.

For `O=c1cc(N2CCOCC2CO)nc2n1CC[C@@H](C(F)(F)F)N2c1cc(F)cc(F)c1` (single isomer, unassigned) [Example 176], the IC50 was over 0.1 µM.

As to `O=c1cc(N2CCOCC2CO)nc2n1CC[C@@H](C(F)(F)F)N2Cc1ccc(Cl)s1` (single isomer, unassigned) [Example 177], the IC50 was in the range of 0.01 to 0.1 µM.

As for `CC1CN(c2cc(=O)n3c(n2)N(Cc2ccccc2)[C@H](C(F)(F)F)CC3)CCO1` (single isomer, unassigned) [Example 191], the IC50 fell in the range of 0.01 to 0.1 µM.

Consider `O=c1cc(N2CCOC(CF)C2)nc2n1CC[C@@H](C(F)(F)F)N2Cc1ccccc1` (single isomer, unassigned) [Example 194], for which the IC50 is over 0.1 µM.

Turning to `C[C@@H]1COCCN1c1cc(=O)n2c(n1)N(CC(O)c1cccnc1)[C@H](C(F)(F)F)CC2` (single isomer, unassigned) [Example 209], the IC50 is under 0.01 µM.

`C[C@@H]1COCCN1c1cc(=O)n2c(n1)N(CC(O)c1ccccn1)[C@H](C(F)(F)F)CC2` (single isomer, unassigned) [Example 212]: the IC50 is under 0.01 µM.

Regarding `CCC(C)N1c2nc(N3CCOC[C@H]3C)cc(=O)n2CC[C@H]1C(F)(F)F` (single isomer, unassigned) [Example 284], the IC50 was under 0.01 µM.

Regarding `COC(CN1c2nc(N3CCOC[C@H]3C)cc(=O)n2CC[C@H]1C(F)(F)F)C(C)C` (single isomer, unassigned) [Example 288], the IC50 is under 0.01 µM.

Take `C[C@@H]1COCCN1c1cc(=O)n2c(n1)N(C/C(=N\O)C1CC1)[C@H](C(F)(F)F)CC2` (single isomer, unassigned) [Example 304]: the IC50 is under 0.01 µM.

On to `C[C@@H]1COCCN1c1cc(=O)n2c(n1)N(C/C(=N/O)C1CC1)[C@H](C(F)(F)F)CC2` (single isomer, unassigned) [Example 305], for which the IC50 was under 0.01 µM.

`CO/N=C(/CN1c2nc(N3CCOC[C@H]3C)cc(=O)n2CC[C@H]1C(F)(F)F)C1CC1` (single isomer, unassigned) [Example 306]: the IC50 is under 0.01 µM.

On to `CO/N=C(\CN1c2nc(N3CCOC[C@H]3C)cc(=O)n2CC[C@H]1C(F)(F)F)C1CC1` (single isomer, unassigned) [Example 307], for which the IC50 was under 0.01 µM.

Consider `C[C@@H]1COCCN1c1cc(=O)n2c(n1)N(CC1(C3CC3)CCO1)[C@H](C(F)(F)F)CC2` (single isomer, unassigned) [Example 308], for which the IC50 is under 0.01 µM.

`CC1CN(c2nc3n(c(=O)c2F)CC[C@@H](C(F)(F)F)N3CC(=O)C2CC2)CCO1` (single isomer, unassigned) [Example 322]: the IC50 was in the range of 0.01 to 0.1 µM.

Regarding `CC(C)C(F)CN1c2nc(N3CCOC[C@H]3C)cc(=O)n2CC[C@H]1C(F)(F)F` (single isomer, unassigned) [Example 323], the IC50 is under 0.01 µM.

Consider `C[C@@H]1COCCN1c1cc(=O)n2c(n1)N(CC(F)C1CC1)[C@H](C(F)(F)F)CC2` (single isomer, unassigned) [Example 325], for which the IC50 is under 0.01 µM.

Regarding `CC(C)C(F)CN1c2nc(N3CCOC[C@H]3C)c(F)c(=O)n2CC[C@H]1C(F)(F)F` (single isomer, unassigned) [Example 328], the IC50 is under 0.01 µM.

For the molecule `C[C@@H]1COCCN1c1nc2n(c(=O)c1F)CC[C@@H](C(F)(F)F)N2CC(F)C1CC1` (single isomer, unassigned) [Example 331], the IC50 is under 0.01 µM.

As for `CC1COCC(C)N1c1cc(=O)n2c(n1)N(Cc1ccc(Cl)s1)[C@H](C(F)(F)F)CC2` (stereo in doubt) [Example 152, (S)-9-(5-Chloro-thiophen-2-ylmethyl)-2-((3S,5S)-3,5-dimethylmorpholin-4-yl)-8-trifluoromethyl-6,7,8,9-tetrahydro-pyrimido[1,2-a]-pyrimidin-4-one], the IC50 is under 0.01 µM.

For the molecule `CC1COCC(C)N1c1cc(=O)n2c(n1)N(CC(=O)c1ccccc1)[C@H](C(F)(F)F)CC2` (stereo in doubt) [Example 153, (S)-2-((3S,5S)-3,5-Dimethylmorpholin-4-yl)-9-(2-oxo-2-phenyl-ethyl)-8-trifluoromethyl-6,7,8,9-tetrahydro-pyrimido[1,2-a]-pyrimidin-4-one], the IC50 is under 0.01 µM.

For `C[C@@H]1COCCN1c1cc(=O)n2c(n1)N(CC(=O)c1ccccn1)[C@H](C(F)(F)F)CC2` [Example 1, (S)-2-((R)-3-Methyl-morpholin-4-yl)-9-(2-oxo-2-pyridin-2-yl-ethyl)-8-trifluoromethyl-6,7,8,9-tetrahydro-pyrimido[1,2-a]-pyrimidin-4-one], the half-inhibitory concentration (IC50) is under 0.01 µM.

As for `Cc1nc(CN2c3nc(N4CCOC[C@H]4C)cc(=O)n3CC[C@H]2C(F)(F)F)no1` [Example 2, (S)-2-((R)-3-Methyl-morpholin-4-yl)-9-(5-methyl-[1,2,4]oxadiazol-3-yl-methyl)-8-trifluoromethyl-6,7,8,9-tetrahydro-pyrimido[1,2-a]-pyrimidin-4-one], the IC50 was under 0.01 µM.

`CC(C)C(=O)CN1c2nc(N3CCOC[C@H]3C)c(F)c(=O)n2CC[C@H]1C(F)(F)F` [Example 4, (S)-3-Fluoro-2-((R)-3-methylmorpholin-4-yl)-9-(3-methyl-2-oxo-butyl)-8-trifluoromethyl-6,7,8,9-tetrahydro-pyrimido[1,2-a]-pyrimidin-4-one]: the IC50 is under 0.01 µM.

Regarding `C[C@@H]1COCCN1c1nc2n(c(=O)c1F)CC[C@@H](C(F)(F)F)N2Cc1ccnc(F)c1` [Example 5, (S)-3-Fluoro-9-(2-fluoropyridin-4-yl-methyl)-2-((R)-3-methylmorpholin-4-yl)-8-trifluoromethyl-6,7,8,9-tetrahydro-pyrimido[1,2-a]-pyrimidin-4-one], the IC50 was under 0.01 µM.

Turning to `C[C@@H]1COCCN1c1nc2n(c(=O)c1F)CC[C@@H](C(F)(F)F)N2CC(=O)C1CC1` [Example 6, (S)-9-(2-Cyclopropyl-2-oxoethyl)-3-fluoro-2-((R)-3-methyl-morpholin-4-yl)-8-trifluoromethyl-6,7,8,9-tetrahydro-pyrimido[1,2-a]-pyrimidin-4-one], the IC50 was under 0.01 µM.

As to `CC(=O)CN1c2nc(N3CCOC[C@H]3C)c(F)c(=O)n2CC[C@H]1C(F)(F)F` [Example 7, (S)-3-Fluoro-2-((R)-3-methylmorpholin-4-yl)-9-(2-oxopropyl)-8-trifluoromethyl-6,7,8,9-tetrahydro-pyrimido[1,2-a]-pyrimidin-4-one], the IC50 is under 0.01 µM.

As to `C[C@H](O)CN1c2nc(N3CCOC[C@H]3C)c(F)c(=O)n2CC[C@H]1C(F)(F)F` [Example 8, (S)-3-Fluoro-9-((S)-2-hydroxypropyl)-2-((R)-3-methylmorpholin-4-yl)-8-trifluoromethyl-6,7,8,9-tetrahydro-pyrimido[1,2-a]-pyrimidin-4-one], the IC50 was under 0.01 µM.

Take `C[C@@H]1COC[C@@H](C)N1c1cc(=O)n2c(n1)N(Cc1ccno1)[C@H](C(F)(F)F)CC2` [Example 9, (S)-2-((3R,5R)-3,5-Dimethylmorpholin-4-yl)-9-isoxazol-5-yl-methyl-8-trifluoromethyl-6,7,8,9-tetrahydro-pyrimido[1,2-a]-pyrimidin-4-one]: the IC50 is under 0.01 µM.

Take `C[C@@H]1COCCN1c1cc(=O)n2c(n1)N(CC(=O)c1ccnc(Cl)c1)[C@H](C(F)(F)F)CC2` [Example 10, (S)-9-[2-(2-Chloro-pyridin-4-yl)-2-oxo-ethyl]-2-((R)-3-methyl-morpholin-4-yl)-8-trifluoromethyl-6,7,8,9-tetrahydro-pyrimido[1,2-a]-pyrimidin-4-one]: the IC50 was under 0.01 µM.

Regarding `C[C@@H]1COCCN1c1cc(=O)n2c(n1)N(CC(=O)c1cccnc1)[C@H](C(F)(F)F)CC2` [Example 11, (S)-2-((R)-3-Methyl-morpholin-4-yl)-9-(2-oxo-2-pyridin-3-yl-ethyl)-8-trifluoromethyl-6,7,8,9-tetrahydro-pyrimido[1,2-a]-pyrimidin-4-one], the IC50 was under 0.01 µM.

Take `Cc1nocc1CN1c2nc(N3CCOC[C@H]3C)cc(=O)n2CC[C@H]1C(F)(F)F` [Example 12, (S)-9-(3-Methyl-isoxazol-4-ylmethyl)-2-((R)-3-methyl-morpholin-4-yl)-8-trifluoromethyl-6,7,8,9-tetrahydro-pyrimido[1,2-a]-pyrimidin-4-one]: the IC50 was under 0.01 µM.

Turning to `C[C@@H]1COCCN1c1cc(=O)n2c(n1)N(Cc1ncco1)CC[C@@H]2C(F)(F)F` [Example 13, (R)-2-((R)-3-Methyl-morpholin-4-yl)-9-oxazol-2-ylmethyl-6-trifluoromethyl-6,7,8,9-tetrahydro-pyrimido[1,2-a]-pyrimidin-4-one], the IC50 lay within 0.01 to 0.1 µM.

Regarding `CCOC(=O)CN1c2nc(N3CCOC[C@H]3C)cc(=O)n2CC[C@H]1C(F)(F)F` [Example 14, [(S)-8-((R)-3-Methyl-morpholin-4-yl)-6-oxo-2-trifluoromethyl-3,4-dihydro-2H,6H-pyrimido[1,2-a]-pyrimidin-1-yl]acetic acid ethyl ester], the IC50 was under 0.01 µM.

Turning to `Cc1nc(CN2c3nc(N4CCOC[C@H]4C)c(F)c(=O)n3CC[C@H]2C(F)(F)F)no1` [Example 15, (S)-3-Fluoro-2-((R)-3-methylmorpholin-4-yl)-9-(5-methyl-[1,2,4]oxadiazol-3-yl-methyl)-8-trifluoromethyl-6,7,8,9-tetrahydro-pyrimido[1,2-a]-pyrimidin-4-one], the IC50 is under 0.01 µM.
